From patent US9877981B2, “NAD biosynthesis and precursors for the treatment and prevention of cancer and proliferation” (President and Fellows of Harvard College, priority 2012, dated 2018)

What was measured:
Type in all cases: cell-based, mouse
PGC-1α/β KO myotubes = assay: qPCR of ETC genes in PGC-1α/β KO myotubes; settings: for expression of nuclear- and mitochondrial-encoded genes: EX-527 48 h
Protocol: (§1) Primary myoblasts cells were isolated from WT, SIRT1 KO (Price et al., 2012) and PGC-1α/β KO (Zechner et al., 2010) mice as previously described (Price et al., 2012). WT and PGC-1α/β KO primary myoblasts were plated and allowed to differentiate into myotubes by replacing the media with low glucose DMEM supplemented with 2% horse serum (Sigma-Aldrich) for 4 days. After the differentiation the cells were infected with empty vector or flag-SIRT1 adenovirus as described before (Gerhart-Hines et al., 2007). Media was replaced with fresh DMEM supplemented with 2% horse serum (Sigma-Aldrich) for an additional 48 hr and, after that the cells were harvested for the different assays as described. To investigate the role of HIF-1α in genome asynchrony, PGC-1α/β KO primary myotubes were treated for 12 hours with 1 mM DMOG (Sigma) or 10 μM DFO (Sigma), 24 h after infection with empty vector of flag-SIRT1 adenovirus or after 12 h treatment with 500 mM NMN (Sigma).
(§2) RNA from skeletal muscle tissue and C2C12 cells were extracted with RNeasy mini kit (Qiagen) according to the instructions and quantified using the NanoDrop 1000 spectrophotometer (Thermo Scientific). cDNA was synthesized with the iSCRIP cDNA synthesis kit (BioRad) using 600 ng of RNA. Quantitative RT-PCR reactions were performed using 1 μM of primers and LightCycler® 480 SYBR Green Master (Roche) on an LightCycler® 480 detection system (Roche). Calculations were performed by a comparative method (2-ΔCT) using 18S as an internal control. For mtDNA analysis, total DNA was extracted with DNeasy blood and tissue kit (Qiagen). mtDNA was amplified using primers specific for the mitochondrial cytochrome c oxidase subunit 2 (COX2) gene and normalized to genomic DNA by amplification of the ribosomal protein s18 (rps18) nuclear gene. Primers were designed using the IDT software (IDT) and the primer sequences can be found in Table 1.

C2C12 myoblasts = assay: mtDNA content and ETC gene expression in C2C12 myoblasts; settings: C2C12 cells; 10 μM EX-527 for 12 h
Protocol: C2C12 cell line (ATCC) was cultured in low glucose Dulbecco's modified eagle medium (DMEM) (Invitrogen) supplemented with 10% FBS (Invitrogen) and a mix of antibiotic and antimycotic (Invitrogen). To inhibit SIRT1, cells were treated the vehicle (0.001% DMSO) or 10 μM EX-527 (Tocris) for 12 h. C2C12 myoblasts were infected with an empty or SIRT1 adenovirus as described before (Gerhart-Hines et al., 2007) and the media was replaced with fresh DMEM for additional 48 h, after that the cells were treated as described before. To test the effects of hypoxia and HIFα stabilization in genome asyncrony, C2C12 myoblasts were exposed to 1% oxygen for 16 h or treated with the vehicle (0.001% DMSO) or DMOG (Cayman) for the same period of time.
as §2

NAD+/NADH = NAD+/NADH ratio in primary myoblasts treated with pyruvate or lactate; settings: primary WT myoblasts; 10 mM lactate 24 h
Protocol: as §1

HIF-1α = assay: Immunoblot of HIF-1α in primary WT myoblasts; settings: 10 mM lactate 24 h
Protocol: as §1, with “To investigate the role of HIF-1α in genome asynchrony, PGC-1α/β KO primary myotubes were treated for 12 hours with 1 mM DMOG (Sigma) or 10 μM DFO (Sigma), 24 h after infection with empty vector of flag-SIRT1 adenovirus or after 12 h treatment with 500 mM NMN (Sigma).” left out
Protein extracts from tissue or C2C12 cells were obtained by lysis in ice-cold lysis buffer (150 mM NaCl, 10 mM Tris HCl (pH 7.4), 1 mM EDTA, 1 mM EGTA, 1% Triton X-100, 0.5% NP-40) supplemented with a cocktail of protease and phosphatase inhibitors (Roche). Protein content was determined by the Bradford protein assay (Biorad), and 50 μg proteins were run on SDS-PAGE under reducing conditions. […] The immunostaining was detected using horseradish peroxidase-conjugated anti-rabbit or anti-mouse immunoglobulin for 1 h at room temperature.

Compound: CC(=O)N(O)CCCCCNC(=O)CCC(=O)N(O)CCCCCNC(=O)CCC(=O)N(O)CCCCCN [DFO, desferrioxamine]
- effect on NMN-induced expression of mitochondrially-encoded ETC genes (PGC-1α/β KO myotubes; PGC-1α/β KO myotubes, NMN plus 1 mM DMOG or 10 μM DFO, 12 hours): completely abolished
- effect on induction of mitochondrial ETC genes by SIRT1 overexpression (PGC-1α/β KO myotubes; PGC-1α/β knockout myotubes with SIRT1 adenovirus, 1 mM DMOG or 10 μM DFO): completely blocked

Compound: NC(=O)C1CCCc2c1[nH]c1ccc(Cl)cc21 (stereo not shown) [EX-527]
- expression of nuclear- and mitochondrial-encoded genes (PGC-1α/β KO myotubes; PGC-1α/β KO myotubes reconstituted with PGC-1α T177A/S538A mutant): only the mitochondrial-encoded genes decreased
- expression of nuclear- and mitochondrial-encoded genes (PGC-1α/β KO myotubes; PGC-1α/β KO myotubes reconstituted with WT PGC-1α): decreased both nuclear- and mitochondrial-encoded genes
- genome asynchrony (C2C12 myoblasts): Genome asynchrony was induced

Compound: CC(O)C(=O)O (stereo not shown) [lactate]
- NAD+/NADH ratio (NAD+/NADH): decreasing NAD^+/NADH ratio
- HIF-1α protein stabilization (HIF-1α): induces HIF-1α protein stabilization
